Experimental data reported in ChEMBL document CHEMBL5108015, “4,6-Disubstituted-1H-Indazole-4-Amine derivatives with immune-chemotherapy effect and in vivo antitumor activity” (Eur J Med Chem, 2022).

Key:
[1] = molecular target: T1, Tryptophan 2,3-dioxygenase (Homo sapiens, UniProt P48775); assay: (§1) Inhibition of N-terminal hexa-histidine tagged human TDO (19 to 388 residues) expressed in Escherichia coli Transetta (DE3) using L-tryptophan as substrate preincubated with enzyme for 10 mins followed by substrate addition and measured after 30 to 60 mins by microplate reader analysis
Target sequence in this assay (P48775 whole entry, the tested form may be a part): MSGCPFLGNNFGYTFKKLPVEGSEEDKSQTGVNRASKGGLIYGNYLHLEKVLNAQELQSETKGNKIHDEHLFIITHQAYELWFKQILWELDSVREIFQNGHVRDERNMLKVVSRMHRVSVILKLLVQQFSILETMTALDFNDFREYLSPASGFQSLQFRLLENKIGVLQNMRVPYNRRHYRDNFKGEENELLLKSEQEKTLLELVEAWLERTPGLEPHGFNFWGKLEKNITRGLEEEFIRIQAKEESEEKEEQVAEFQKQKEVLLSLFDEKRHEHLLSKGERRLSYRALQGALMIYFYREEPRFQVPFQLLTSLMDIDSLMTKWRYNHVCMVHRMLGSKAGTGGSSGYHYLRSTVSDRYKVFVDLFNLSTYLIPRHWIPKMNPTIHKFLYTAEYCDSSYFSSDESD

MOLM-13 = assay: Cytotoxicity against human MOLM-13 cells assessed as inhibition of cell growth incubated for 24 hrs by MTT assay; format: functional, cell-based; conditions: MOLM-13, 24 h
[2] = molecular target: T1, Tryptophan 2,3-dioxygenase; assay: as §1, with “as substrate at 10 uM preincubated with” for “as substrate preincubated with”, “reader analysis relative to control” for “reader analysis”; conditions: time 40-70 min
Target sequence in this assay (P48775 whole entry, looked up, the tested form may be a part): as the sequence (P48775 whole entry, the tested form may be a part) above

[3] = molecular target: T2, Indoleamine 2,3-dioxygenase 1 (Homo sapiens, UniProt P14902); assay: (§2) Inhibition of N-terminal hexa-histidine tagged human IDO1 (12 to 403 residues) expressed in Escherichia coli Transetta (DE3) using L-tryptophan as substrate preincubated with enzyme for 10 mins followed by substrate addition and measured after 30 to 60 mins by microplate reader analysis
Target sequence in this assay (P14902 whole entry, the tested form may be a part): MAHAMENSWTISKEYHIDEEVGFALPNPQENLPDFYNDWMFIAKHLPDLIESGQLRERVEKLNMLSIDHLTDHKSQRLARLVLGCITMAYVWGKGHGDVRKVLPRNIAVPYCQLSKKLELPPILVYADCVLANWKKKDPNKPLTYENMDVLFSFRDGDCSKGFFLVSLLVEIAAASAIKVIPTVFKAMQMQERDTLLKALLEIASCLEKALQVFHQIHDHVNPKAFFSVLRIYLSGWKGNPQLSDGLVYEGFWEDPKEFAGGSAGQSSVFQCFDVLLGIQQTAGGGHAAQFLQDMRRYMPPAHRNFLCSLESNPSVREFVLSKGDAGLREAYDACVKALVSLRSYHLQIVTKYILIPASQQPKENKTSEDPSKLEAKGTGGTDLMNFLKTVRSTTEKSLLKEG

[4] = Cytotoxicity against […] cells assessed as inhibition of cell growth incubated for 24 hrs by MTT assay; format: functional, cell-based; conditions: Mus musculus, Hepa1-6, 24 h
HepG2 = assay: Cytotoxicity against human HepG2 cells assessed as inhibition of cell growth incubated for 24 hrs by MTT assay; format: functional, cell-based; conditions: HepG2, 24 h
Jurkat = assay: Cytotoxicity against human Jurkat cells assessed as inhibition of cell growth incubated for 24 hrs by MTT assay; format: functional, cell-based
[5] = molecular target: T2, Indoleamine 2,3-dioxygenase 1; assay: as §2, with “as substrate at 10 uM preincubated with” for “as substrate preincubated with”, “reader analysis relative to control” for “reader analysis”; conditions: time 40-70 min
Target sequence in this assay (P14902 whole entry, looked up, the tested form may be a part): as the sequence (P14902 whole entry, the tested form may be a part) above

[6] = molecular target: T1, Tryptophan 2,3-dioxygenase; assay: as §1, with “as substrate at 100 uM preincubated with” for “as substrate preincubated with”, “reader analysis relative to control” for “reader analysis”; conditions: time 40-70 min
Target sequence in this assay (P48775 whole entry, looked up, the tested form may be a part): as the sequence (P48775 whole entry, the tested form may be a part) above

B16 = assay: Cytotoxicity against mouse B16 cells assessed as inhibition of cell growth incubated for 24 hrs by MTT assay; format: functional, cell-based; conditions: B16, 24 h
[7] = molecular target: T2, Indoleamine 2,3-dioxygenase 1; assay: as §2, with “as substrate at 100 uM preincubated with” for “as substrate preincubated with”, “reader analysis relative to control” for “reader analysis”; conditions: time 40-70 min
Target sequence in this assay (P14902 whole entry, looked up, the tested form may be a part): as the sequence (P14902 whole entry, the tested form may be a part) above

H22 = assay: Cytotoxicity against mouse H22 cells assessed as inhibition of cell growth incubated for 24 hrs by MTT assay; format: functional, cell-based; conditions: H22, 24 h

Row | SMILES | IC50 [1] | IC50 (MOLM-13) | inhibition [2] | IC50 [3] | IC50 [4] | IC50 (HepG2) | IC50 (Jurkat) | inhibition [5] | inhibition [6] | IC50 (B16) | inhibition [7] | IC50 (H22)
1 | FC(F)(F)c1cc(NC[C@H]2CCCN2)c2cn[nH]c2c1 | 6.09 µM | > 20 µM | 55% | 9.58 µM | > 20 µM | 16.2 µM | > 20 µM | 34% | 84% | > 20 µM | 83% | 19.7 µM
2 | O=[N+]([O-])c1ccc(CNc2cc(Br)cc3[nH]ncc23)cc1 | 2.23 µM | > 20 µM | 87% | 6.97 µM | > 20 µM | > 20 µM | > 20 µM | 63% | 93% | > 20 µM | 87% | > 20 µM
3 | FC(F)(F)c1cccc(CNc2cc(C(F)(F)F)cc3[nH]ncc23)c1 | 12.2 µM | – | 40% | > 100 µM | – | – | – | 25% | 74% | – | 49% | –
4 | O=[N+]([O-])c1cccc(CNc2cc(Br)cc3[nH]ncc23)c1 | 1.6 µM | > 20 µM | 91% | 7.95 µM | > 20 µM | 23.6 µM | > 20 µM | 72% | 97% | > 20 µM | 95% | > 20 µM
5 | FC(F)(F)c1cc(NC[C@@H]2CCCCN2)c2cn[nH]c2c1 | 8.05 µM | > 20 µM | 64% | 18.7 µM | > 20 µM | 19.9 µM | > 20 µM | 32% | 88% | > 20 µM | 81% | 21.7 µM
6 | O=[N+]([O-])c1ccccc1CNc1cccc2[nH]ncc12 | 17 µM | – | 45% | – | – | – | – | 25% | 87% | – | 65% | –
7 | O=C1NC(=O)c2c(NCc3ccccc3[N+](=O)[O-])cccc21 | > 100 µM | – | 17% | > 100 µM | – | – | – | 11% | 25% | – | 4% | –
8 | Oc1ccc(CNc2cc(C(F)(F)F)cc3[nH]ncc23)c(Cl)c1 | 2.68 µM | – | 92% | 6.02 µM | – | – | – | 83% | 97% | – | 95% | –
9 | O=[N+]([O-])c1ccc(CNc2cc(C(F)(F)F)cc3[nH]ncc23)cc1 | > 100 µM | – | 47% | 61 µM | – | – | – | 52% | 64% | – | 61% | –
10 | FC(F)(F)c1cc(NC[C@H]2CCCCN2)c2cn[nH]c2c1 | 0.46 µM | – | 69% | 24 µM | – | – | – | 19% | 90% | – | 69% | –
11 | O=C(O)CNc1cccc(CNc2cc(C(F)(F)F)cc3[nH]ncc23)c1 | > 100 µM | – | – | > 100 µM | – | – | – | – | 65% | – | 8% | –
12 | OC1CCCC(Nc2cccc(CNc3cc(C(F)(F)F)cc4[nH]ncc34)c2)C1 (stereo not drawn) | > 100 µM | – | – | > 100 µM | – | – | – | – | 23% | – | 2% | –
13 | COC(=O)c1cc(NCc2ccccc2[N+](=O)[O-])c2cn[nH]c2c1 | > 100 µM | – | 16% | > 100 µM | – | – | – | 11% | 20% | – | 47% | –
14 | O=C(O)c1cccc(CNc2cc(C(F)(F)F)cc3[nH]ncc23)c1 | 1.69 µM | – | 81% | > 100 µM | – | – | – | 11% | 94% | – | 17% | –
15 | O=[N+]([O-])c1cc(Cl)ccc1CNc1cc(C(F)(F)F)cc2[nH]ncc12 | 1.7 µM | 4.13 µM | 90% | 18 µM | > 20 µM | 5.82 µM | 8.04 µM | 50% | 93% | > 20 µM | 77% | 10.3 µM
16 | FC(F)(F)c1cc(NCc2cccc3sccc23)c2cn[nH]c2c1 | > 100 µM | – | – | > 100 µM | – | – | – | – | 5% | – | 3% | –
17 | CC(C)n1ncc2c(NCc3ccccc3[N+](=O)[O-])cc(C(F)(F)F)cc21 | > 100 µM | – | 35% | > 100 µM | – | – | – | 7% | 32% | – | 13% | –
18 | NCCn1ncc2c(NCc3ccccc3[N+](=O)[O-])cc(C(F)(F)F)cc21 | > 100 µM | – | 25% | > 100 µM | – | – | – | 9% | 29% | – | 30% | –
19 | Nc1cccc(CNc2cc(C(F)(F)F)cc3[nH]ncc23)c1 | 2.51 µM | – | 68% | > 100 µM | – | – | – | 24% | 89% | – | 55% | –
20 | FC(F)(F)c1cc(NCC2CNC2)c2cn[nH]c2c1 | > 100 µM | – | 5% | > 100 µM | – | – | – | 10% | 49% | – | 22% | –
21 | Oc1ccc(CNc2cc(C(F)(F)F)cc3[nH]ncc23)cc1 | 2.55 µM | – | 75% | 36.7 µM | – | – | – | 37% | 91% | – | 81% | –
22 | FC(F)(F)c1cc(NCc2cccc(Br)c2)c2cn[nH]c2c1 | 19.1 µM | – | 67% | > 100 µM | – | – | – | 23% | 84% | – | 51% | –
23 | O=[N+]([O-])c1ccccc1CNc1cc(Br)cc2cn[nH]c12 | > 100 µM | – | 35% | > 100 µM | – | – | – | 4% | 48% | – | 9% | –
24 | O=[N+]([O-])c1ccc2[nH]c(CNc3cc(C(F)(F)F)cc4[nH]ncc34)cc2c1 | > 100 µM | – | 54% | > 100 µM | – | – | – | 22% | 69% | – | 38% | –
25 | O=[N+]([O-])c1cc(OCc2ccccc2)ccc1CNc1cc(C(F)(F)F)cc2[nH]ncc12 | 97 µM | – | 49% | > 100 µM | – | – | – | 10% | 55% | – | 20% | –
26 | O=[N+]([O-])c1ccccc1CNc1cc(Br)cc2[nH]ncc12 | 38.9 µM | – | 52% | 8.04 µM | – | – | – | 67% | 64% | – | 83% | –
27 | N#Cc1cc(NCc2ccccc2[N+](=O)[O-])c2cn[nH]c2c1 | > 100 µM | – | 22% | > 100 µM | – | – | – | 7% | 41% | – | 17% | –
28 | CNC(=O)c1cccc(CNc2cc(C(F)(F)F)cc3[nH]ncc23)c1 | 4.87 µM | – | 71% | > 100 µM | – | – | – | 33% | 91% | – | 46% | –
29 | O=[N+]([O-])c1cccc(CNc2cc(C(F)(F)F)cc3[nH]ncc23)c1 | 5.17 µM | – | 60% | > 100 µM | – | – | – | 45% | 82% | – | 69% | –
30 | O=C1NCc2c(NCc3ccccc3[N+](=O)[O-])cccc21 | > 100 µM | – | 23% | > 100 µM | – | – | – | 8% | 29% | – | 9% | –
